Results: ChEMBL document CHEMBL1201862, “PubChem BioAssay data set” (2004)
Activity calls are given as the source filed them.

What was measured:
[1] = Luminescence Cell-Based Dose Retest to Confirm Inhibitors of Cancer Stem Cells. [Related pubchem assays (depositor defined):AID2717, AID2721]; type: functional; conditions: Homo sapiens
[2] = growth suppression of PTEN-null colon cells, dose response, cell-based, HCT116 PTEN knockout (AID 1047); type: functional;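 further: HCT116 colon tumor cells with PTEN knocked out; cells exposed to compound for 60 hours before readout; potency for loss of cell viability measured by luminescence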
A-375 = assay: A375 melanoma cell viability reduction, dose response, counter-screen for MITF modulator project, cherry-pick samples, set 2 (AID 540335); type: functional, cell-based; conditions: Homo sapiens
[3] = growth suppression of beta-catenin-knockout colon cells, dose response, cell-based, HCT116, human colon tumor (AID 1045); type: functional;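 further: HCT116 colon tumor cells with beta catenin knocked out; cells exposed to compound for 60 hours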
[4] = biological target: T1, Microphthalmia-associated transcription factor (Homo sapiens, UniProt O75030); assay: TRPM1 promoter luciferase signal decrease, dose response, MITF inhibitor project, cell-based, SK-MEL-5, cherry-picked, set 3 (AID 493073); type: functional
T1 sequence (O75030 whole entry): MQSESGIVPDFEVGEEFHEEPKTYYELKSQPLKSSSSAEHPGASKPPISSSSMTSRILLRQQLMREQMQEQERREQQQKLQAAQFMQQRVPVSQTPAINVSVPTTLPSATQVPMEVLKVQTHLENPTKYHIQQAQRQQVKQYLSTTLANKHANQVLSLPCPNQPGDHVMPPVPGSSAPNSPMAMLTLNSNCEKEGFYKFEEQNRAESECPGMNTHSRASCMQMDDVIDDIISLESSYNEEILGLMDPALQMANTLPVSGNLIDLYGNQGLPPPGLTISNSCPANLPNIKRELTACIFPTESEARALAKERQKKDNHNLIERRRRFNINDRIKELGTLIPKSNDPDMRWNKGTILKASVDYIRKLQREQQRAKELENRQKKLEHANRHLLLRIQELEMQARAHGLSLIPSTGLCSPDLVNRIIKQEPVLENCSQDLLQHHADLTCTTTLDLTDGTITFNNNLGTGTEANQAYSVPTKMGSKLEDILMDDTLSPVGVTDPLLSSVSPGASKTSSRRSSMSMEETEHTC

Keap1/Nrf2 = Keap1/Nrf2 (Homo sapiens, UniProt Q14145); assay: Keap1-Nrf2 protein-protein interaction inhibitors, dose response, biochemical, fluorescence polarization, cherry-picked samples (AID 588683)
Sequence of Keap1/Nrf2 (Q16236 whole entry): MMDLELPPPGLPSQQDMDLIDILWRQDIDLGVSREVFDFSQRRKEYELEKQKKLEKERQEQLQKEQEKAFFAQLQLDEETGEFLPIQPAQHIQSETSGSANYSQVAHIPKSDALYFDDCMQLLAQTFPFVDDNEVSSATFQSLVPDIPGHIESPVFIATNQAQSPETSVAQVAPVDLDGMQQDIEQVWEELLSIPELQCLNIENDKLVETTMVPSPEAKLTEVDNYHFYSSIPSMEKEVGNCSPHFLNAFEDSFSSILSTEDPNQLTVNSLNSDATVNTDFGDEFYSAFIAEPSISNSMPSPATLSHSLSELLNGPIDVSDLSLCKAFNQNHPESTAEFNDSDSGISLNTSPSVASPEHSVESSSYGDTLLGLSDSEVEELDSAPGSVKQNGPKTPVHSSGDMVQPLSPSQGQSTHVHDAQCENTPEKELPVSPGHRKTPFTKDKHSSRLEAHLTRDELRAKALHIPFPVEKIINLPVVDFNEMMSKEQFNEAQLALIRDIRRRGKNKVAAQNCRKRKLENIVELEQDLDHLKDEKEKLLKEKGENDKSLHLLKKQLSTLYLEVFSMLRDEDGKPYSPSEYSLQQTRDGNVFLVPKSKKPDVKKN
Sequence of Keap1/Nrf2 (Q14145 whole entry): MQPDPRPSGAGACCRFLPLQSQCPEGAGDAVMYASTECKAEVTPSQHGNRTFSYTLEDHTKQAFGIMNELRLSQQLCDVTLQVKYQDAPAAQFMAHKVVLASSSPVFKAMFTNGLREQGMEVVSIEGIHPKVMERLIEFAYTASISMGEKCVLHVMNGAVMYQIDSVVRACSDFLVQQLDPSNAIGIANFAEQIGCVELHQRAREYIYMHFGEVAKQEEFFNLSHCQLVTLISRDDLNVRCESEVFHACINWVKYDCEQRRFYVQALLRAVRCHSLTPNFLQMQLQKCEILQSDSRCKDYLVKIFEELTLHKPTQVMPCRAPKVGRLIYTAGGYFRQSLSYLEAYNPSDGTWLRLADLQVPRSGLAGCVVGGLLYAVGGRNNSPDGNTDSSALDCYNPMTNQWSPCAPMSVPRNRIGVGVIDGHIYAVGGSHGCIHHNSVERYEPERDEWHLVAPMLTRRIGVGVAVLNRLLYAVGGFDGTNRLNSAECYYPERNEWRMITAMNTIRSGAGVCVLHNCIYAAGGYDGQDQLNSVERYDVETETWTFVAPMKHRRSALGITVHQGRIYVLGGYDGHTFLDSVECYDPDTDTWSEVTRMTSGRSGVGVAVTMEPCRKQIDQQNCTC

Candida albicans [5] = assay: growth inhibition of azole-resistant C. albicans, dose response, CaCi-8 strain, Alamar Blue, dry powder, set 2 (AID 488909); type: functional, organism-based
Candida albicans [6] = assay: C. albicans growth inhibition with fluconazole, dose response, antifungal resistance reversal project, CaCi-2 strain, Alamar Blue, dry powder, set 2 (AID 488930); type: functional, organism-based
Candida albicans [7] = assay: growth inhibition of resistant C. albicans, dose response, CaCi-8 strain, fluconazole, dry powder, set 4 (AID 488950); type: functional, organism-based
Candida albicans [8] = assay: fluconazole resistance reversal in C. albicans, dose response, CaCi-2 strain, Alamar Blue, dry powder, set 4 (AID 488943); type: functional, organism-based
Candida albicans [9] = assay: Candida albicans growth inhibition, agent alone, dose response, counter-screen for reversing antifungal drug resistance, CaCi-2 strain, no fluconazole, dry powder, set 4 (AID 488932); type: functional, organism-based
Candida albicans [10] = assay: Candida albicans growth inhibition, compound alone, dose response, counter-screen for antifungal drug resistance project, CaCi-2 strain, Alamar Blue, dry powder, set 2 (AID 488893); type: functional, organism-based
HEK293 [11] = assay: cytotoxicity in HEK293T NF-kB-Luc cells, SAR follow-up, cytotoxicity control for NF-kB activator project, cell-based, resazurin fluorescence (AID 493251); type: functional; conditions: Homo sapiens
Jurkat = assay: SAR Analysis of small molecule inhibitors of T-cell specific antigen receptor-induced NF-kB activation in a Jurkat cell line using a luminescence assay - Set 2. [Related pubchem assays (depositor defined):AID435003, AID435012, AID465]; type: functional, cell-based; conditions: Homo sapiens
HEK293 [12] = assay: SAR Analysis of small molecule inhibitors of T-cell specific antigen receptor-induced NF-kB activation in a HEK-293T cell line using a luminescence assay - Set 2. [Related pubchem assays (depositor defined):AID435003, AID435012, AID489026]; type: functional, cell-based; conditions: Homo sapiens

For O=C1C(Cl)=C(Nc2ccccc2)C(=O)c2ccccc21, the AC50 [1] was 0.779 µM (active), the EC50 [2] was 8.47 µM (active) and the AC50 (A-375) was 4.17 µM (active). The EC50 [3] was 4.77 µM (active) and the AC50 [4] was 2.88 µM (active).

For O=c1cc(CN2CCCc3ccccc32)nc2sccn12, the AC50 (Keap1/Nrf2) was 17.1 µM (active).

With CC1CN(c2ccnc3cc(Cl)ccc23)CCN1C(=O)c1ccc(Cl)cc1 (stereo unspecified) the AC50 (Candida albicans [5]) was 6.14 µM (active), the AC50 (Candida albicans [6]) was 0.645 µM (active) and the AC50 (Candida albicans [7]) was 1.82 µM (active). For the same molecule, the AC50 (Candida albicans [8]) was 0.783 µM (active).

In the case of COCCC(=O)N1CCN(c2ccnc3cc(Cl)ccc23)CC1, the AC50 (Candida albicans [9]) is reported as 136 µM (active), the AC50 (Candida albicans [7]) is reported as 72.5 µM (active) and the AC50 (Candida albicans [10]) is reported as > 260 µM (inactive).

For COc1ccccc1C(NC(C)=O)c1ccc2cccnc2c1O (stereo unspecified), the IC50 (HEK293 [11]) was 7.73 µM (active), the IC50 (Jurkat) was 7.09 µM (active) and the IC50 (HEK293 [12]) was 7.96 µM (active).
